According to ChEMBL document CHEMBL1201862, “PubChem BioAssay data set” (2004):
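Tested at 5 concentrations; 48 h exposure; 96-well plates; endpoints linearly interpolated, else capped at highest concentration. GI50: concentration for 50% inhibition of growth.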 Active and inactive are the calls of the source. Cut-off read from the data, not from the text of the source: active = GI50 up to about 1.1 µM and inactive = higher.

How the values were obtained:
Experiment in all cases: inhibition of tumour cell growth, NCI panel, 48 h
A549 = test system: A549
ACHN = test system: ACHN
CAKI-1 = test system: CAKI-1
COLO 205 = test system: COLO 205
DU-145 = test system: DU-145
EKVX = test system: EKVX
HCT-116 = test system: HCT-116
HCT-15 = test system: HCT-15
HOP-92 = test system: HOP-92
HT-29 = test system: HT-29
IGROV-1 = test system: IGROV-1
KM12 = test system: KM12
M14 = test system: M14
MDA-MB-231 = test system: MDA-MB-231
MDA-MB-435 = test system: MDA-MB-435
NCI-H226 = test system: NCI-H226
NCI-H23 = test system: NCI-H23
NCI/ADR-RES = test system: NCI/ADR-RES
OVCAR-3 = test system: OVCAR-3
OVCAR-4 = test system: OVCAR-4
OVCAR-5 = test system: OVCAR-5
OVCAR-8 = test system: OVCAR-8
PC-3 = test system: PC-3
RXF 393 = test system: RXF 393
SF-268 = test system: SF-268
SF-295 = test system: SF-295
SF-539 = test system: SF-539
SK-MEL-28 = test system: SK-MEL-28
SK-MEL-5 = test system: SK-MEL-5
SN12C = test system: SN12C
SNB-19 = test system: SNB-19
SNB-75 = test system: SNB-75
SW-620 = test system: SW-620
TK-10 = test system: TK-10
U-251 = test system: U-251
UO-31 = test system: UO-31
786-0 = test system: 786-0
A498 = test system: A498
HCC 2998 = test system: HCC 2998
HOP-62 = test system: HOP-62
Hs-578T = test system: Hs-578T
LOX IMVI = test system: LOX IMVI
MDA-N = test system: MDA-N
NCI-H460 = test system: NCI-H460
UACC-257 = test system: UACC-257
UACC-62 = test system: UACC-62

Compound | GI50 (A549) | GI50 (ACHN) | GI50 (CAKI-1) | GI50 (COLO 205) | GI50 (DU-145) | GI50 (EKVX) | GI50 (HCT-116) | GI50 (HCT-15) [µM] | GI50 (HOP-92) | GI50 (HT-29) | GI50 (IGROV-1) | GI50 (KM12) | GI50 (M14) | GI50 (MDA-MB-435) | GI50 (NCI-H226) | GI50 (NCI-H23) | GI50 (NCI/ADR-RES) | GI50 (OVCAR-3) | GI50 (OVCAR-4) | GI50 (PC-3) | further results
CCC1(c2ccc(N3C(=O)c4ccccc4C3=O)cc2)CCC(=O)NC1=O (stereo unspecified) | > 10 µM (inactive) | > 10 µM (inactive) | > 10 µM (inactive) | > 10 µM (inactive) | > 10 µM (inactive) | > 10 µM (inactive) | > 10 µM (inactive) | > 10 | > 10 µM (inactive) | > 10 µM (inactive) | > 10 µM (inactive) | > 10 µM (inactive) | > 10 µM (inactive) | > 10 µM (inactive) | > 10 µM (inactive) | > 10 µM (inactive) | > 10 µM (inactive) | > 10 µM (inactive) | > 10 µM (inactive) | > 10 µM (inactive) | GI50 (MDA-MB-231): > 10 µM (inactive); GI50 (OVCAR-5): > 10 µM (inactive); GI50 (OVCAR-8): > 10 µM (inactive); GI50 (RXF 393): > 10 µM (inactive); GI50 (SF-268): > 10 µM (inactive); GI50 (SF-295): > 10 µM (inactive); GI50 (SF-539): > 10 µM (inactive); GI50 (SK-MEL-28): > 10 µM (inactive); GI50 (SK-MEL-5): > 10 µM (inactive); GI50 (SN12C): > 10 µM (inactive); GI50 (SNB-19): > 10 µM (inactive); GI50 (SNB-75): > 10 µM (inactive); GI50 (SW-620): > 10 µM (inactive); GI50 (TK-10): > 10 µM (inactive); GI50 (U-251): > 10 µM (inactive); GI50 (UO-31): > 10 µM (inactive)
COc1ccc2c(ccc3c(C(=O)NCCN(C)CCNC(=O)c4cn(C)c5c4ccc4cc(OC)ccc45)cn(C)c32)c1 | 1.79 µM (inactive) | 1.72 µM (inactive) | 1.62 µM (inactive) | 2.01 µM (inactive) | 1.73 µM (inactive) | 1.3 µM (inactive) | 1.79 µM (inactive) | 1.26 | 2.61 µM (inactive) | 1.4 µM (inactive) | 1.02 µM (active) | 1.66 µM (inactive) | 1.64 µM (inactive) | 2.38 µM (inactive) | 0.628 µM (active) | 1.32 µM (inactive) | 1.42 µM (inactive) | 1.51 µM (inactive) | 1.56 µM (inactive) | 1.51 µM (inactive) | GI50 (786-0): 1.53 µM (inactive); GI50 (A498): 20 µM (inactive); GI50 (HCC 2998): 1.47 µM (inactive); GI50 (HOP-62): 1.44 µM (inactive); GI50 (Hs-578T): 1.95 µM (inactive); GI50 (LOX IMVI): 2.15 µM (inactive); GI50 (MDA-N): 1.57 µM (inactive); GI50 (NCI-H460): 1.45 µM (inactive); GI50 (RXF 393): 1.4 µM (inactive); GI50 (SF-268): 1.95 µM (inactive); GI50 (SF-295): 1.85 µM (inactive); GI50 (SK-MEL-28): 1.79 µM (inactive); GI50 (SK-MEL-5): 1.63 µM (inactive); GI50 (SN12C): 1.49 µM (inactive); GI50 (SNB-19): 1.95 µM (inactive); GI50 (SW-620): 2.18 µM (inactive); GI50 (U-251): 3.16 µM (inactive); GI50 (UACC-257): 1.58 µM (inactive); GI50 (UACC-62): 1.84 µM (inactive); GI50 (UO-31): 1.45 µM (inactive)
